Assay results from ChEMBL document CHEMBL4419175, “Compositions for treatment, diagnosis and prognosis of diseases” (2016).
Calls of active or inactive are those of the source. No cut-off for these calls is given here.

Columns and labels:
LNCaP [1] = assay: Effect on CREB phosphorylation in human LNCAP cells at 20 uM incubated for 48 hrs by immunoblot analysis; format: functional, cell-based
PC-3 [2] = assay: Inhibition of PIP5K1alpha protein expression in human PC3 cells assessed as reduction in AKT phosphorylation at Ser473 residues at 50 uM incubated for 48 hrs by immunoblot analysis relative to control; format: functional, cell-based
LNCaP [3] = assay: Inhibition of PIP5K1alpha protein expression in human LNCAP cells assessed as reduction in AKT phosphorylation at Ser473 residues at 20 uM incubated for 48 hrs by immunoblot analysis relative to control; format: functional
PC-3 [4] = assay: Antitumor activity against human PC3 cells xenografted in mouse assessed as reduction in volume at 10 mg/kg dosed every second day starting from day 0 and ending on day 20 relative to control; format: functional, organism-based
PC-3 [5] = assay: Induction of apoptosis in human PC3 cells assessed as necrotic cells at 100 nM incubated for 48 hrs by Annexin-/7-AAD staining based FACS analysis (reference value: 0.32%); format: functional
LNCaP [6] = assay: Effect on CREB phosphorylation in human LNCAP cells at 50 nM incubated for 48 hrs by immunoblot analysis; format: functional, cell-based
LNCaP [7] = assay: Inhibition of PSA protein expression in human LNCAP cells at 50 nM incubated for 48 hrs by immunoblot analysis; format: functional, cell-based
PC-3 [8] = assay: Induction of apoptosis in human PC3 cells assessed as late apoptotic cells at 100 nM incubated for 48 hrs by Annexin-/7-AAD staining based FACS analysis (reference value: 2.83%); format: functional
PC-3 [9] = assay: Induction of apoptosis in human PC3 cells assessed as early apoptotic cells at 100 nM incubated for 48 hrs by Annexin-/7-AAD staining based FACS analysis (reference value: 2.53%); format: functional
PC-3 [10] = assay: Inhibition of PIP5K1alpha protein expression in human PC3 cells assessed as reduction in FAK phosphorylation incubated for 48 hrs by immunoblot analysis relative to control; format: functional, cell-based
PC-3 [11] = assay: Inhibition of PIP5K1alpha protein expression in human PC3 cells at 50 nM incubated for 48 hrs by immunoblot analysis; format: functional, cell-based
LNCaP [12] = assay: Inhibition of AR protein expression in human LNCAP cells at 50 nM incubated for 48 hrs by immunoblot analysis; format: functional, cell-based
PC-3 [13] = assay: Induction of morphological changes in human PC3 cells assessed as changes in morphology at 100 nM incubated for 48 hrs by live cell imaging system based assay; format: functional
[14] = Toxicity in mouse xenografted with human PC3 cells at 10 mg/kg dosed every second day starting from day 0 and ending on day 20 relative to control; format: organism-based; settings: in vivo
PC-3 [15] = assay: Induction of apoptosis in human PC3 cells assessed as viable cells at 100 nM incubated for 48 hrs by Annexin-/7-AAD staining based FACS analysis (reference value: 94.31%); format: functional; settings: PC-3, 48 h, read-out: Activity
PC-3 [16] = assay: Inhibition of PIP5K1alpha protein expression in human PC3 cells assessed as reduction in AKT phosphorylation at Ser473 residues at 100 nM incubated for 48 hrs by immunoblot analysis relative to control; format: functional, cell-based
PC-3 [17] = assay: Induction of morphological changes in human PC3 cells assessed as reduction in cell size at 100 nM incubated for 48 hrs by live cell imaging system based assay; format: functional
LNCaP [18] = assay: Inhibition of PIP5K1alpha protein expression in human LNCAP cells assessed as reduction in AKT phosphorylation at Ser473 residues at 50 nM incubated for 48 hrs by immunoblot analysis relative to control; format: functional, cell-based

| SMILES | Activity (LNCaP [1]) | inhibition (PC-3 [2]) | inhibition (LNCaP [3]) | Activity (PC-3 [4]) | Activity (PC-3 [5]) [%] | Activity (LNCaP [6]) | inhibition (LNCaP [7]) | Activity (PC-3 [8]) [%] | Activity (PC-3 [9]) [%] | inhibition (PC-3 [10]) | inhibition (PC-3 [11]) | inhibition (LNCaP [12]) | Activity (PC-3 [13]) | Activity [14] | viability at 0.1 µM (PC-3 [15]) [%] | inhibition (PC-3 [16]) | Activity (PC-3 [17]) | inhibition (LNCaP [18]) |
| --- | --- | --- | --- | --- | --- | --- | --- | --- | --- | --- | --- | --- | --- | --- | --- | --- | --- | --- |
| COc1cc([C@@H]2c3cc4c(cc3[C@@H](O[C@@H]3O[C@@H]5CO[C@@H](C)O[C@H]5[C@H](O)[C@H]3O)[C@H]3COC(=O)[C@H]23)OCO4)cc(OC)c1O | inactive | inactive | inactive |  |  |  |  |  |  |  |  |  |  |  |  |  |  |  |
| CC(=O)O[C@@]12CO[C@@H]1C[C@H](O)[C@@]1(C)C(=O)[C@H](O)C3=C(C)[C@@H](OC(=O)[C@H](O)[C@@H](NC(=O)OC(C)(C)C)c4ccccc4)C[C@@](O)([C@@H](OC(=O)c4ccccc4)[C@H]21)C3(C)C [DOCETAXEL ANHYDROUS] |  |  |  | Active | 1.15 | inactive | inactive | 6.36 | 2.73 | inactive | inactive | inactive | Active | Toxic | 89.8 | inactive | Active | inactive |
